Source: ChEMBL document CHEMBL3507680, “University of Dundee, Gates Library screen for HepG2 cell viability”

Assay: Human HepG2 cell viability assay in 384 well format
Format: toxicity, cell-based
Set-up: dose 125 nL, time 70.5 hour; cytotoxicity at 70.5 h: concentration not given beside the values
Settings: HepG2 cells, read-out: Inhibition

In order of rising cytotoxicity at 70.5 h:
1. COCCC(=O)N1CCCC2(CCCN2Cc2ccccc2F)C1 (centres undefined)  -107%
2. O=C(CN(CC(O)c1ccc(F)cc1)C1CC1)NC1CCOCC1 (centres undefined)  -91.7%
3. CCCS(=O)(=O)N1CCC2(CN(c3ccccc3)C(=O)CN2C)C1 (centres undefined)  -87.7%
4. COCCOc1nc(-c2ccccc2Cl)no1  -78.8%
5. CN(Cc1cnn(C)c1)C(=O)NCc1nnc2n1CCC2  -25.4%
6. O=C(c1ccccc1-n1cccn1)N1CCCN(c2cccnn2)CC1  -21.8%
7. Cc1nc2sccn2c1CN(CCCN(C)C)Cc1ccco1  -21.2%
8. COCCNC(=O)c1nc(NS(=O)(=O)c2ccccc2)sc1C  -18.8%
9. Cc1nn(C)c(C)c1C(=O)N1CCOCC1CC(=O)c1ccco1 (centres undefined)  -18.7%
10. COc1ccc(CNCC(C)Oc2ccccn2)cc1 (centres undefined)  -18.6%
11. O=C(CSc1ccccn1)N1CCC(OCc2cccnc2)CC1  -18.6%
12. CCOCC(O)CN1CCN(C(=O)c2cccnc2OC)CC1 (centres undefined)  -18%
13. Cn1ncc2c(=O)[nH]c(CN(Cc3ccco3)C3CC3)nc21  -16.2%
14. OCC(CO)N1CCCC(Cc2ccnc(Nc3ccccn3)c2)C1 (centres undefined)  -14.9%
15. COc1ccccc1-c1csc(NC(=O)N2CCN(C)CC2C)n1 (centres undefined)  -14.7%
16. Cc1cc(C)cc(OCCCn2nc3ccccn3c2=O)c1  -13.4%
17. Cc1nc(CN2CCCC2Cn2cncn2)nc2ccccc12 (centres undefined)  -12.1%
18. Cc1nc(C)n(CC2CCCCN2c2ncnc3ccsc23)n1 (centres undefined)  -11.9%
19. O=C(c1ccc[nH]1)N1CCCC2(CCN(c3ccsc3)C2=O)C1 (centres undefined)  -11.6%
20. COc1ccc(CNc2cccnc2-n2cccn2)c(OC)c1OC  -11.5%
21. O=C1NC2(Cc3ccccc31)CN(CC1CCNC1)C2 (centres undefined)  -11.5%
22. Cc1nc(CN2CCCC(CCNS(C)(=O)=O)C2)c[nH]1 (centres undefined)  -11.3%
23. CCN(CCn1cccn1)Cc1nc(-c2cc(F)ccc2F)oc1C  -11.2%
24. O=C([C@@H]1C[C@@H]2CCN(Cc3ccc4c(c3)OCO4)C[C@@H]2O1)N1CCCC1  -11.1%
25. CC(C)n1ccnc1C1CCN(C(=O)c2cc[nH]n2)CC1  -10.9%
26. COc1cc(CNC(=O)c2cc(S(C)(=O)=O)ccc2C)ccn1  -10.5%
27. O=C(O)c1nnn(-c2ccc(OC(F)(F)F)cc2)c1-c1ccncc1  -10.5%
28. COC(=O)C(c1cc(F)ccc1F)N(C)C(=O)c1cnc(C)cn1 (centres undefined)  -9.59%
29. Cc1cccc(CNC[C@H]2COCc3nc4cccnc4n32)n1  -9.5%
30. CC1=NC2(CCN(CC(C)c3ccccc3)CC2)C(=O)N1 (centres undefined)  -8.98%
31. CCN(CC1CCCN(CCc2cccc(OC)c2)C1)C(=O)CSC (centres undefined)  -8.89%
32. CC(C)n1nc2c(cc1=O)CN(CCOc1cccc(C#N)c1)CC2  -8.86%
33. COc1ccc(CN(C)Cc2c(C)noc2C)c(Cl)c1OC  -8.81%
34. Cc1ccc(F)cc1-n1c(CN(C)S(C)(=O)=O)n[nH]c1=O  -8.73%
35. Cc1nncn1CCNC(=O)C(C)(C)c1cccc(Cl)c1  -8.68%
36. Cc1ccsc1CN(CCN(C)C)C(=O)c1ccc(C#N)nc1  -8.67%
37. Cc1ccc2c(c1)C(N1CCOCC1)CC21CCNCC1 (centres undefined)  -8.36%
38. CCOc1cccc(C(C)NC(=O)N2CCC(C(N)=O)CC2)c1 (centres undefined)  -8.18%
39. CCOc1ccc(NS(=O)(=O)c2cc(C)c(C(=O)O)s2)cc1F  -8.14%
40. CC(C)COC(C)C(=O)NCCNS(C)(=O)=O (centres undefined)  -7.36%
41. Cc1ccc(NC(=O)CC2NC(N3CCc4ccccc43)=NC2=O)cc1 (centres undefined)  -7.26%
42. COCCN1CCC2(CC1)CC1(CCN(S(C)(=O)=O)CC1)N(C)C2=O  -7.2%
43. Cc1ccc(CN2CC3(CCN(C(=O)c4cscn4)C3)C2)o1  -7.14%
44. O=C(NCCCN1CCOCC1)c1ccn(COc2ccc(F)cc2)n1  -6.88%
45. COCCSc1ccc(C(C)NC(=O)Nc2cn[nH]c2)cc1 (centres undefined)  -6.86%
46. O=C1CC[C@@H]2[C@@H](CCN2C(=O)c2ccsc2)N1CC1CC1  -6.8%
47. Clc1ccc(OCCCN2CCN(c3cnccn3)CC2)cc1  -6.78%
48. COc1ccccc1C(=O)Nc1ccc(OC2CCN(C)CC2)cc1  -6.64%
49. Cc1cc(C)n(C2CN(CC(=O)N(C)Cc3ccco3)C2)n1  -6.63%
50. CC(C)CCNC(=O)C1CCCN1C(=O)Nc1cccc(F)c1 (centres undefined)  -6.59%
51. CC(C#N)CN(C)C(=O)CCNC(=O)OC(C)(C)C (centres undefined)  -6.35%
52. CCCC(=O)N1CCC(Cc2ccccc2-c2ccccc2)(C(N)=O)C1 (centres undefined)  -6.16%
53. Cc1nc(Nc2ccccn2)cc(C2CCCN2Cc2ncc[nH]2)n1 (centres undefined)  -6.09%
54. Cc1nn(C)c(N2CCOCC2)c1CNC1CCS(=O)(=O)C1 (centres undefined)  -6.08%
55. COCCCn1cnnc1CNC(=O)c1[nH]c2c(C)cc(C)cc2c1C  -6.04%
56. Cc1cnccc1-c1cnn(CCNC(=O)c2cccnc2)c1C1CC1  -5.95%
57. CSCC(C)(O)CNc1cccc(F)c1C(C)=O (centres undefined)  -5.74%
58. CSC1(CNC(=O)CCc2ccc(Cl)s2)CCOCC1  -5.64%
59. OCc1cc2ccccc2nc1NC1CC=CC1  -5.4%
60. Cc1cc(C(=O)N2C[C@@H](CN3CCOCC3)C[C@H](CO)C2)nc(C)n1  -5.29%
61. Cc1nc(CN2C[C@@H]3CN(C(=O)NC(C)C)C[C@@H]3C2=O)cs1  -5.1%
62. O=C(C1CCCN1S(=O)(=O)C1CCCC1)N1CCSCC1 (centres undefined)  -5.09%
63. C[C@]1(O)CN(Cc2cccc(C(=O)O)c2)CC[C@@H]1Oc1cccc(F)c1  -4.99%
64. CCOCC(=O)N1C[C@@H](O)[C@H](NC(C)=O)C1  -4.78%
65. CCC(=O)NC1CCCN(Cc2ccc(NC(C)=O)cc2)C1 (centres undefined)  -4.65%
66. COc1cccc(-c2ccc3nc(C4CCN(C(C)=O)CC4)nn3c2)c1  -4.61%
67. COc1ccccc1OCc1cc(C(=O)N2CC(O)C2)n[nH]1  -4.48%
68. O=C(c1ncccc1O)N1CCc2c(ncnc2N2CCOCC2)C1  -4.02%
69. Cc1nc(C)n(CC2CN(Cc3ccccc3C#N)CCO2)n1 (centres undefined)  -3.74%
70. O=C(O)c1csc(S(=O)(=O)Nc2cccc(OCC(F)(F)F)c2)c1  -3.57%
71. Cc1ccccc1C(=O)Nc1cnn(CC(=O)NC2CCCC2)c1  -3.04%
72. COc1ccc(CCNC(=O)C2CCOC2)c(Cl)c1 (centres undefined)  -2.75%
73. COc1cc(C2CC(=O)Nc3c2c(=O)[nH]n3C2CCCC2)ccc1O (centres undefined)  -2.72%
74. CC1=C(C#N)C(=O)NC(=O)/C1=C\c1c(C)nn(-c2ccc(C)cc2)c1O  -2.65%
75. CN(Cc1cc(C(C)(C)C)n[nH]1)C(=O)c1cn2ccsc2n1  -2.6%
76. Cc1nc(-c2ccc(F)c(F)c2)cc(C2CCNCC2)n1  -2.44%
77. CO[C@H]1CN(Cc2ccc(F)c(F)c2)C[C@@]12CCCO2  -2.35%
78. Cc1cnc(-c2nc(O)c3c(n2)CN(C(=O)C2CCOC2)CC3)cn1 (centres undefined)  -1.76%
79. COc1cccc(CNC(=O)CN2CCCC(Cn3cncn3)C2)c1 (centres undefined)  -1.72%
80. c1ccc2nc(N3CCCC(Cn4cncn4)C3)cnc2c1 (centres undefined)  -1.5%
81. CC(=O)N1CCOC2(CCCN(C(=O)CCN3CCCCC3)C2)C1 (centres undefined)  -1.24%
82. Cc1ccc(CNC(C)c2ccc(OCC(=O)NC3CC3)cc2)o1 (centres undefined)  -1.22%
83. Nc1ccc(C(=O)N2CCC(Oc3cccc(C(F)(F)F)c3)CC2)cn1  -0.861%
84. Clc1ccc(OCCc2cc(C3CCN(c4ncccn4)C3)n[nH]2)cc1 (centres undefined)  0.0716%
85. CC(=O)N1CC[C@H](c2nc3cc(C)ccc3o2)C1  0.212%
86. c1cnc(N2CC3(CCN(CC4CCOC4)CC3)c3ccccc32)nc1 (centres undefined)  0.807%
87. COc1ncccc1C1CC(=O)NCc2nc3ccccn3c21 (centres undefined)  1.55%
88. Cc1ccc(CCNC(=O)Cn2nc(C)n(Cc3ccccc3)c2=O)s1  3.12%
89. CCO[C@@H]1CCN(C(=O)c2ccnnc2)[C@@H]1Cc1cnn(C)c1  3.33%
90. Cc1nc(C(C)NC(=O)NCc2nccn2CC(C)C)cs1 (centres undefined)  4.05%
91. Cc1cccc(C2(CNC(=O)C(C)NC(N)=O)CCCC2)c1 (centres undefined)  4.08%
92. CCn1ccnc1CN1CCCC1Cn1cc(C)cn1 (centres undefined)  4.18%
93. Cc1csc(N(C)C(=O)C2CC(=O)N(CCc3ccccc3)C2)n1 (centres undefined)  4.67%
94. Cc1nc2cc(OCc3nc(C(=O)NC(C)(CO)CO)co3)ccc2s1  6.62%
95. c1ccc(O[C@@H]2CC[C@H]3[C@H]2OCCN3Cc2ccsc2)nc1  8.42%
96. CSCCC(NC(N)=O)C(=O)NCc1cnn(-c2ccccc2)c1 (centres undefined)  8.76%
97. Cc1ncnc2c1CCN(C(=O)c1ccncc1)CC2  8.77%
98. c1ccc(OCc2noc(CN3CCN(C4CCCC4)CC3)n2)cc1  9.68%
99. Cc1noc(C)c1CN(C)Cn1nccc1-c1cccnc1  10.8%
100. CNc1cc(CNC(=O)c2ccnc(OC)c2)nc(-c2ccncc2)n1  11.8%
101. Cc1nonc1NC(=O)c1ccc(F)c(COCC2CC2)c1  11.9%
102. Cn1c(CN2CCOC(Cn3cncn3)C2)nc2ccccc21 (centres undefined)  13.6%
103. O=C(Cn1nc2ccccc2n1)N1CCCC(O)(CN2CCCC2)C1 (centres undefined)  13.9%
104. Cn1nc(C#N)c2c1CN(C(=O)c1ccco1)CCC2  14.2%
105. O=C(Nc1ccccc1)N1C(CO)[C@]2(O)CC[C@H]1CC2 (some centres undefined)  15%
106. Brc1cccc(C2(CNCc3cc[nH]c3)CCOCC2)c1  17.6%
107. O=C(Nc1cc(C(F)(F)F)ccc1Cl)c1ccc(N2CCCC2)nn1  19.7%
108. CC(OCC(F)(F)F)C(=O)NCCN(C)C (centres undefined)  20.8%
109. CCc1nc2c(N3CCCC(c4nccn4CCOC)C3)ncnc2o1 (centres undefined)  26.1%
110. Cc1ccc(-n2cc(C(=O)N3CCn4c(C)nnc4C3)nn2)cc1  26.8%
111. CCOCCN1CCc2cncnc2C1  27.9%
112. OC(CN1CCN(Cc2cc(F)cc(F)c2)CC1)C1CC1 (centres undefined)  28.5%
113. CNC(=O)CNC(=O)Nc1cc(-c2ccccc2)ns1  29.7%
114. Cc1nccn1-c1cccc(C2CCCN2S(=O)(=O)c2cn(C)cn2)n1 (centres undefined)  31.6%
